The values below come from patent publication US11299489B1, “Thiazole compounds as protein kinase inhibitors” (NATIONAL HEALTH RESEARCH INSTITUTES, priority 2020, dated 2022).

As a reminder, the IC50 is the midpoint of a concentration-inhibition curve. What is called GI50 is the concentration at which growth is held to half of that of the control.

Data set [1] concerns the target T1, human c-KIT (residues T544-V976) (Homo sapiens, UniProt P10721).
T1 construct: human c-KIT (residues T544-V976); His (N); made in house; host or cells: baculovirus-insect cell expression system (printed '519', evidently Sf9)
The experiment in a line: c-Kit ADP Kinase-Glo assay. Conditions: 20 μM ATP, 30° C., 150 mins; read-out: IC50, inhibiting c-Kit activity. Format: biochemical. As to the method:
A study was carried out as follows to test compound 1 HCl salt prepared according to EXAMPLE 1 in inhibiting c-Kit activity.
The N-terminal His-tagged human c-KIT (residues T544-V976) recombinant proteins, expressed in 519 baculovirus-insect cell expression systems, were purified for c-KIT ADP Kinase-Glo assay. A c-Kit-ADP Kinase-Glo assay was carried out in 96-well plates at 30° C. for 150 mins with a final volume of 10 μL, including 40 mM Tris pH 7.4, 20 mM MgCl2, 2 mM MnCl2, 2 mM DTT, 0.01% BSA, 20 μM ATP, 20 μM poly(Glu,Tyr) 4:1 peptide, 0.1 mM Na3VO4, 250 ng of recombinant c-Kit proteins, and a tested compound at the indicated concentration. The reactions were stopped by the addition of 5 μL ADP-Glo™ Reagent (Promega, Madison, Wis., USA) at 25° C. with 40 min incubation, followed by 10 μL of kinase detection reagent for a further 30 min. Finally, a […] aliquot of each reaction mixture was transferred to a black microtiter plate and the luminescence was measured on Wallac Vector 1420 multilabel counter (Perkin-Elmer, Shelton, Conn., USA).
(Kinase-Glo reads ATP consumption through a luciferase reaction.)

Data set [2] deals with GIST430 cells. Nature of the data set: Cell proliferation assay (methylene blue), GIST430. Conditions: Homo sapiens, GIST430, 120 h. Format: cell-based. As to the method:
(§1) GIST882, GIST48 and GIST430 cells were all cultured in incubators maintained at 37° C. and 5% CO2. GIST882 was cultured in RPMI-1640 supplemented with 20% fetal bovine serum (FBS). GIST48 was cultured with F10 supplemented with 20% FBS, 0.5% Mito, serum extender (BD Bioscience, 355006) and 1% pituitary extract bovine (BD Bioscience 354123). GIST430 was cultured in IMDM supplemented with 20% FBS. GIST882, GIST430 and GIST48 cells were provided by Dr. Jonathan A. Fletcher (Harvard Medical School, US).
(§2) GIST cells (4×10^4) were treated with different dosage of compounds. The treated GIST882 cells were incubated for 144 h and GIST48 and GIST430 cells were incubated for 120 h at 37° C. in 5% CO2. Cell proliferation was determined by incubating the cells with methylene blue (Clontech, CA, US) for 1 hour. The absorbance was measured at 450 nm using SpectraMax M5 microplate reader (Molecular Devices, US).

The subject of data set [3] is GIST48 cells. The experiment in a line: Cell proliferation assay (methylene blue), GIST48. It counts as cell-based. The conditions noted are these: Homo sapiens, GIST48, 120 h. As to the method:
as §1, §2

Data set [4] has as its system BaF3 cells (IL3 dependent pro-B cell line). Nature of the data set: MTS cell viability assay, BaF3 + IL3. Format: cell-based, murine. The conditions noted are these: Mus musculus; BaF3 + IL3, 72 h. The source says: (§3) MV4:11, BaF3 and HEK293T cell lines were obtained from American Type Culture Collection (ATCC, Manassas, Va., USA). MOLM-13 cell line was purchased from the Deutsche Sammlung von Microorganismen and Zellkulturen GmbH (DSMZ, Braunschweig, Germany). The GIST-T1 cell line was obtained from COSMO BIO CO., LTD (Tokyo, Japan). The GIST-T1, MOLM-13, MV4:11, BaF3, BaF3/FLT3-D835Y, BaF3/FLT3-ITD-F691L and BaF3/FLT3-ITD-D835Y cells were maintained in RPMI 1640 medium supplemented with 10% fetal bovine serum (FBS), 10 U/mL penicillin, and 100 μg/mL streptomycin at 37° C. and 5% CO2. The kasumin-1 cells were cultured in RPMI 1640 medium supplemented with 20% fetal bovine serum (FBS), 1 mM Hepes, 1 mM sodium pyruvate, 10 U/ml penicillin, and 100 μg/ml streptomycin. The HEK293T and FLT3-transfected HEK293T cells were cultured in DMEM (Invitrogen, USA) medium with 10% FBS fetal bovine serum. […]
(§4) Cell viability assay was performed by seeding 1×10^4 cells (MOLM-13, MV4:11, BaF3, BaF3/FLT3-D835Y, BaF3/FLT3-ITD-D835Y and BaF3/FLT3-ITD-F691L) per well in a 96-well culture plate. […] The viable cells were quantitated using the CellTiter 96 AQueous MTS method (Promega, Madison, Wis., USA) according to the manufacturer's recommended protocol. The results were determined by measuring the absorbance at 490 nm using a plate reader (Victor2; PerkinElmer, Shelton, Conn., USA). […]

The test system of data set [5] is Kasumi-1 xenografts. The experiment in a line: In vivo efficacy study on Kasumi-1 xenografts. Conditions: days 1-5 and 8-12; for Day 18 Tumor Size: control 880. More on the design: species or system SCID male mice.
Data set [6] concerns GIST882 cells. Nature of the data set: Cell proliferation assay (methylene blue), GIST882. Format: cell-based. Conditions: Homo sapiens, GIST882, 144 h. The procedure:
as §1, §2

The test system of data set [7] is BaF3/FLT3-D835Y cells. The experiment in a line: MTS cell viability assay, BaF3/FLT3-D835Y. It counts as cell-based, murine. The conditions noted are these: Mus musculus, 72 h.
Excerpt: as §3, §4

The test system of data set [8] is MOLM-13 cells. Nature of the data set: MTS cell viability assay, MOLM-13. It counts as cell-based. Conditions: Homo sapiens, MOLM-13, 72 h.
Excerpt: as §3, §4
In general terms: Formazan colour is commonly taken as a measure of viable cells.

Data set [9] has as its system BaF3/FLT3-ITD-F691L cells. The experiment in a line: MTS cell viability assay, BaF3/FLT3-ITD-F691L. The conditions noted are these: Mus musculus, 72 h. Format: cell-based, murine.
Excerpt: as §3, §4

Data set [10] has as its system GIST-T1 cells. Nature of the data set: MTS cell viability assay, GIST-T1. Format: cell-based. Conditions: Homo sapiens, GISTT1, 72 h.
Excerpt: as §3, §4

The subject of data set [11] is MV4:11 cells. Nature of the data set: MTS cell viability assay, MV4:11. Format: cell-based. The conditions noted are these: Homo sapiens, MV4-11, 72 h.
Excerpt: as §3, §4

Data set [12] relates to BaF3/FLT3-ITD-D835Y cells. The experiment in a line: MTS cell viability assay, BaF3/FLT3-ITD-D835Y. Format: cell-based, murine. The conditions noted are these: Mus musculus, 72 h.
Excerpt: as §3, §4

Data set [13] addresses T2, GST-FLT3-KD WT (FLT3 kinase catalytic domain) (Homo sapiens, UniProt P36888).
T2 construct: containing the FLT3 kinase catalytic domain (residues Y567-5993); GST; made in house; host or cells: Sf9 insect cells (baculovirus, pBac-PAK8-GST-FLT3-KD plasmid)
T2 sequence (P36888 567-993 limits assumed): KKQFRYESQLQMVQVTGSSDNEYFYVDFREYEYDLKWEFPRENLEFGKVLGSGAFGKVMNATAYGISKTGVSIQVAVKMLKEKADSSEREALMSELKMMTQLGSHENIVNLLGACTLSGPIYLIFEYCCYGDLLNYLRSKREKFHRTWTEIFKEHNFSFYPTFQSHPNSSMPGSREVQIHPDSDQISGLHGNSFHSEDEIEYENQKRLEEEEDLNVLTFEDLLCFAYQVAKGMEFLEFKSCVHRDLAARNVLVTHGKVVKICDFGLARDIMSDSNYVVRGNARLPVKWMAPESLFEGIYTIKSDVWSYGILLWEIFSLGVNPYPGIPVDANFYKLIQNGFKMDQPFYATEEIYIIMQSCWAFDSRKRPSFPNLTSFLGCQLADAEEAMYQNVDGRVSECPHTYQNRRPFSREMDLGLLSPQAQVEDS
The experiment in a line: FLT3 WT Kinase-Glo assay. It counts as biochemical. Conditions: 1 μM ATP, 30° C., 4 h; read-out: IC50, inhibiting FLT3 activity. The procedure: A study was carried out as follows to test compound 1 HCl salt prepared according to EXAMPLE 1 in inhibiting FLT3 activity.
GST-FLT3-KD^WT containing the FLT3 kinase catalytic domain (residues Y567-5993) was expressed in Sf9 insect cells transfected the baculovirus containing pBac-PAK8-GST-FLT3-KD plasmid. An FLT3^WT Kinase-Glo assay was carried out in 96-well plates at 30° C. for 4 h to test compound in a final volume of 50 μL including the following components: 75 ng GST-FLT3-KD^WT proteins, 25 mM HEPES, pH 7.4, 4 mM MnCl2, 10 mM MgCl2, 2 mM DTT, 0.02% Triton X-100, 0.1 mg/mL bovine serum albumin, 25 μM Her2 peptide substrate, 0.5 mM Na3VO4, and 1 μM ATP. Following incubation, 50 μL Kinase-Glo Plus Reagent (Promega, Madison, Wis., USA) was added to each well and the mixture was incubated at 25° C. for 20 min. A 70-μL aliquot of each reaction mixture was transferred to a black microtiter plate and the luminescence was measured on Wallac Vector 1420 multilabel counter (PerkinElmer, Shelton, Conn., USA).

Counter-ions that a name gives are not always drawn. Bounds are passed on as bounds.

T1 sequence (P10721 544-976): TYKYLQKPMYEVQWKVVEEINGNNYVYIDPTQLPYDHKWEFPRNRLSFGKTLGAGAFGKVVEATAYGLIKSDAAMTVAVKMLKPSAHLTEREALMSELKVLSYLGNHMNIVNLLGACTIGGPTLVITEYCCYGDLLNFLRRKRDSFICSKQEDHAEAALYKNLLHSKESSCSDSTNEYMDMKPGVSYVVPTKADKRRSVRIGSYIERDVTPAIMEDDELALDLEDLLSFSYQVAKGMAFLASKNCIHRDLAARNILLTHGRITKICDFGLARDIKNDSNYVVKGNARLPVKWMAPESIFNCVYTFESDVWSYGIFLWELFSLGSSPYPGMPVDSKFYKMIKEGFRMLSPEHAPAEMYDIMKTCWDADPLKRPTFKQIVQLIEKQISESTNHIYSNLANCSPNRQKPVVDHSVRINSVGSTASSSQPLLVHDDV

As for `Cc1nc(Nc2ncc(-c3ccncc3)s2)cc(N2CCNCC2)n1` [Compound 1 HCl salt, 2-Methyl-6-(piperazin-1-yl)-N-[5-(pyridine-4-yl)-1,3-thiazol-2-yl]pyrimidin-4-amine dihydrochloride], the IC50 in [1] and in [13] was below 100 nM each time. The 50% growth inhibitory concentration (GI50) is 33 nM in data set [2]; 20 nM in data set [3]; 2580 nM in data set [4]; 8 nM in data set [6]; 14 nM in data set [7]; 2.9 nM in [8]. For the same compound, the GI50 was 95 nM in data set [9], 2.3 nM in data set [10], 1.3 nM in data set [11] and 53 nM in data set [12]. The “Body Weight Loss” value in [5] (10 mg/kg oral) and in data set [5] (50 mg/kg oral) was “No” in each case. The “Mortality (n = 6)” value in [5] (10 mg/kg oral) and in data set [5] (50 mg/kg oral) was 0/6 each time. The “Day 18 Tumor Size” value in data set [5] (10 mg/kg oral) stood at 700 mm^3; in [5] (50 mg/kg oral), 80 mm^3.
